# Data as given in ChEMBL document CHEMBL1201862, “PubChem BioAssay data set” (2004).
# Calls of active or inactive are those of the source.
# Assays:
# [1] = biological target: Dual specificity tyrosine-phosphorylation-regulated kinase 1A (Rattus norvegicus, UniProt Q63470); assay type: biochemical, Homo sapiens
# [2] = biological target: ATP-dependent molecular chaperone HSP82 (Candida albicans (strain WO-1) (Yeast), UniProt C4YTQ8); test: loss of DOC-induced GRE-beta-galactosidase reporter signal, dose response, Hsp90 inhibitor project, S. cerevisiae, luminescence (AID 2400); assay type: functional, cell-based;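 further: beta-galactosidase luminescence from glucocorticoid response element reporter as proxy for Hsp90 function; inhibitor potency where signal loss means Hsp90 inhibition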
# [3] = C. albicans growth with fluconazole, confirmation, fluorescence, retest (AID 2467); assay type: functional, cell-based
# [4] = biological target: T1, Serine/threonine-protein phosphatase (Candida dubliniensis (strain CD36 / CBS 7987 / NCPF 3949 / NRRLY-17841) (Yeast), UniProt B9W6M3); test: calcineurin pathway inhibitors in yeast reporter, dose response, S. cerevisiae, CDRE-lacZ, luminescence, secondary (AID 2388); assay type: functional, cell-based;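 further: yeast reporter cells carrying a calcineurin-responsive lacZ construct stimulated with calcium chloride; luminescent beta-galactosidase reporter signal in whole cells rather than isolated phosphatase activity; potency for inhibition where a drop in reporter signal means calcineurin blockade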
# T1 sequence (B9W6M3 whole entry): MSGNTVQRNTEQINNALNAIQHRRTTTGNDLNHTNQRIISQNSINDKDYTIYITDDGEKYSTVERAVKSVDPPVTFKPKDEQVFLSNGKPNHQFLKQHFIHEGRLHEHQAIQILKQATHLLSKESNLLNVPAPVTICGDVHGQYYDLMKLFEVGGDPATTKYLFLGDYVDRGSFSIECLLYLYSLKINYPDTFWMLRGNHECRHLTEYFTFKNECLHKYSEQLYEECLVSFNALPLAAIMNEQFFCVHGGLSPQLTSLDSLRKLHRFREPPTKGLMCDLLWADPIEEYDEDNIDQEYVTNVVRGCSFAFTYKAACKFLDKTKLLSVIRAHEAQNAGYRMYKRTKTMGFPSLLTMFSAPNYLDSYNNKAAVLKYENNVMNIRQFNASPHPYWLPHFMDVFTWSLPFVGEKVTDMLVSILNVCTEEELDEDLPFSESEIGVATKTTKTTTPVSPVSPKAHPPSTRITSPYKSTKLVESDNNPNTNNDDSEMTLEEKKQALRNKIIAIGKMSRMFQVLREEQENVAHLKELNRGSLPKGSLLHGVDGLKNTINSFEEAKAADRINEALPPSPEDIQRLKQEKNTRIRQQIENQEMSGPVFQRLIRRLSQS
# [5] = NIH-3T3 fibroblast cytotoxicity, dose response, cytotoxicity control, cell-based, fluorescence, Alamar Blue, secondary assay (AID 2327); assay type: functional;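 further: NIH-3T3 mouse fibroblasts cultured with fluconazole at 8 µg/mL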
# Cytochrome P450 3A4 = Cytochrome P450 3A4 (Homo sapiens, UniProt P08684);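 further: CYP3A4 tested as one member of a cytochrome P450 panel screen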
# HEK293 [6] = test: cells; assay type: functional, cell-based; conditions: Homo sapiens
# Cytochrome P450 1A2 = biological target: T2, Cytochrome P450 1A2 (Homo sapiens, UniProt P05177);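 further: PubChem cytochrome P450 panel assay, CYP1A2 panel member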
# T2 sequence (P05177 whole entry): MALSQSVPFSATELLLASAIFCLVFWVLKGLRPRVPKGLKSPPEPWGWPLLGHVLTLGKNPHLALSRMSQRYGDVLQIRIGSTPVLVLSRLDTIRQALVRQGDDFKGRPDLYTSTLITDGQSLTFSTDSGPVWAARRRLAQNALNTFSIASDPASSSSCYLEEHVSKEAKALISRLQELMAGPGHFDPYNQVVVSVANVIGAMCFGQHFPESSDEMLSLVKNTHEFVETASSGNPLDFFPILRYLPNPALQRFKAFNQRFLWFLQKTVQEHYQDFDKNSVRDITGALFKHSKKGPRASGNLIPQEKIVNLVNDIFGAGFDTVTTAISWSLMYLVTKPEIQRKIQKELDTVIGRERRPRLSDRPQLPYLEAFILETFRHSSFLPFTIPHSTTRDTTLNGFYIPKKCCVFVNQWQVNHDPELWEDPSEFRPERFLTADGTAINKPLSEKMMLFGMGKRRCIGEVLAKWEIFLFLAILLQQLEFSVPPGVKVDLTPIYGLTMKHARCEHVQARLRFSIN
# [7] = biological target: Nucleotide-binding oligomerization domain-containing protein 2 (Homo sapiens, UniProt Q9HC29); test: NOD2 signaling inhibitors, cell-based, luminescence, uHTS, HEK293 (AID 1566); assay type: functional
# HEK293 [8] = test: NOD1 signaling inhibitors, primary screen, cell-based, luminescence, uHTS (AID 1578); assay type: functional; conditions: Homo sapiens
# HEK293 [9] = test: NOD2 signaling inhibitors in MDP-stimulated cells, cell-based, uHTS, luminescence (AID 2001); assay type: functional; conditions: Homo sapiens
# HEK293 [10] = test: cells; assay type: functional, cell-based; conditions: Homo sapiens; remark: listed apart in the source
# HEK293 [11] = test: cells; assay type: functional, cell-based; conditions: Homo sapiens; remark: listed apart in the source
# [12] = biological target: T3, DNA repair and recombination protein RAD54-like (Homo sapiens, UniProt Q92698); test: inhibitors of human RAD54 branch migration, confirmation, biochemical, fluorescence, cherry-picked samples, dose series (AID 651657); assay type: functional
# T3 sequence (Q92698 whole entry): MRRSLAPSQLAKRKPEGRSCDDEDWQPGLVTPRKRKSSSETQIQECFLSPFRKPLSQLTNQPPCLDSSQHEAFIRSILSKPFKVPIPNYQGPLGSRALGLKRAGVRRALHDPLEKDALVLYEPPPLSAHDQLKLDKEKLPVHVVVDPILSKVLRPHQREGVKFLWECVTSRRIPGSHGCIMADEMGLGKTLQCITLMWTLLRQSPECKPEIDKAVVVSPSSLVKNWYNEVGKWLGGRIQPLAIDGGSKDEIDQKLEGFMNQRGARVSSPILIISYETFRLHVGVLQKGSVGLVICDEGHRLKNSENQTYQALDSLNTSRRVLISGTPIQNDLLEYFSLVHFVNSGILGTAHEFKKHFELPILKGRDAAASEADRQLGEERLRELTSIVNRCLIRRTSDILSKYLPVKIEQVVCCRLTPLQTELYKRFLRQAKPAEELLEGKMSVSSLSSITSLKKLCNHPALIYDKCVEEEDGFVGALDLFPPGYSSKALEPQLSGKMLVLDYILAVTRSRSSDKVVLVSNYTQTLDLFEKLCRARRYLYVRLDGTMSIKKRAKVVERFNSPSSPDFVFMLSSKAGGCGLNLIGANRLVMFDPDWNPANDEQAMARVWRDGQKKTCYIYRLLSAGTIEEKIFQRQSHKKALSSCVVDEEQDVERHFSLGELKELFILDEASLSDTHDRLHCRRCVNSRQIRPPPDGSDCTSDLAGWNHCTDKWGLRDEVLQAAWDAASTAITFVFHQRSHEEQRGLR
# HEK293 [13] = test: inhibitors of LMP1-driven NF-kB reporter, dose response, cell-based, HEK293, luciferase, cherry-pick (AID 588343); assay type: functional; conditions: Homo sapiens
# Chain of Nucleotide-binding oligomerization domain-containing protein 2 (Q9HC29 whole entry, the tested form may be a part): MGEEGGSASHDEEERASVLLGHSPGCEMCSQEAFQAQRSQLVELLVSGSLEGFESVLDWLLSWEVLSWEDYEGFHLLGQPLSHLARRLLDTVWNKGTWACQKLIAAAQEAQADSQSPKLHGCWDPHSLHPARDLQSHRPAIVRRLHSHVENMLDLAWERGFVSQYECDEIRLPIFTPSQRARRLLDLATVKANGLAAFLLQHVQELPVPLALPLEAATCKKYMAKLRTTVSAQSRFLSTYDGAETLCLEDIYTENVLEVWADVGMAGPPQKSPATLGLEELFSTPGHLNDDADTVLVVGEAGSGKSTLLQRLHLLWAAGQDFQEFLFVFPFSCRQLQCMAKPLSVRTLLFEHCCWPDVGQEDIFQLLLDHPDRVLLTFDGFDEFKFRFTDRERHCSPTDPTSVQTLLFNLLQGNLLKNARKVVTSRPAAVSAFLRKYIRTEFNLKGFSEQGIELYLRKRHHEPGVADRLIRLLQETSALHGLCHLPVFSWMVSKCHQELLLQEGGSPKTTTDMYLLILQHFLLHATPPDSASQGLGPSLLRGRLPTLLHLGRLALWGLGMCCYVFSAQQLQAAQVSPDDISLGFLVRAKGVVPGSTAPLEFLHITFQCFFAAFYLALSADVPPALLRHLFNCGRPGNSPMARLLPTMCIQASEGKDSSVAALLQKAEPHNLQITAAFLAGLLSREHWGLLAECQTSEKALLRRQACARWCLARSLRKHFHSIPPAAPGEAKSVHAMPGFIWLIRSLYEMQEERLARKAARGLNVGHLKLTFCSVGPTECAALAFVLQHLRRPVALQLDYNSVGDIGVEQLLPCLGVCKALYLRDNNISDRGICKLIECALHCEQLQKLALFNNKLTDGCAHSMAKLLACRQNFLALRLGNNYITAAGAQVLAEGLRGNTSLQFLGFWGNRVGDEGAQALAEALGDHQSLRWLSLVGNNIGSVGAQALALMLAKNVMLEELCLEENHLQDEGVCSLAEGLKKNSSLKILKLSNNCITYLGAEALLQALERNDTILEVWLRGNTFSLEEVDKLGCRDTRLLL
# Chain of ATP-dependent molecular chaperone HSP82 (C4YTQ8 whole entry): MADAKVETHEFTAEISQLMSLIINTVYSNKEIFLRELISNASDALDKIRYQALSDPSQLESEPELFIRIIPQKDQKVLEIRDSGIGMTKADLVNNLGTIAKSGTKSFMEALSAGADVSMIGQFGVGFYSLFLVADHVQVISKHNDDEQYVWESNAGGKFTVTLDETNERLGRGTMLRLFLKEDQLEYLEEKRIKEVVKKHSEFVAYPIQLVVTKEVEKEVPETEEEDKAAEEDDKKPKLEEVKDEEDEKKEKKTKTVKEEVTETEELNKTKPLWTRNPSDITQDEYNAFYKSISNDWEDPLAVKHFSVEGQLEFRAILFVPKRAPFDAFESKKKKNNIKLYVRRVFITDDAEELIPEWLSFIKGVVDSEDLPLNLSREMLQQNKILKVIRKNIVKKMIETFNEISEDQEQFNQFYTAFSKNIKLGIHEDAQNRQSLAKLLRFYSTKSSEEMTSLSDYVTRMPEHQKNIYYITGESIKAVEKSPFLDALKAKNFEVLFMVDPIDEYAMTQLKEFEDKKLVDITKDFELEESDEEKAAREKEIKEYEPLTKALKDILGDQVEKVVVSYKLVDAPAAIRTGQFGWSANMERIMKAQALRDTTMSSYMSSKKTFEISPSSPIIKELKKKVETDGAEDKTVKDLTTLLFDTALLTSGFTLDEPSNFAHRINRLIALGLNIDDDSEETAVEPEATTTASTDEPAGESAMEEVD
# Chain of Cytochrome P450 3A4 (P08684 whole entry): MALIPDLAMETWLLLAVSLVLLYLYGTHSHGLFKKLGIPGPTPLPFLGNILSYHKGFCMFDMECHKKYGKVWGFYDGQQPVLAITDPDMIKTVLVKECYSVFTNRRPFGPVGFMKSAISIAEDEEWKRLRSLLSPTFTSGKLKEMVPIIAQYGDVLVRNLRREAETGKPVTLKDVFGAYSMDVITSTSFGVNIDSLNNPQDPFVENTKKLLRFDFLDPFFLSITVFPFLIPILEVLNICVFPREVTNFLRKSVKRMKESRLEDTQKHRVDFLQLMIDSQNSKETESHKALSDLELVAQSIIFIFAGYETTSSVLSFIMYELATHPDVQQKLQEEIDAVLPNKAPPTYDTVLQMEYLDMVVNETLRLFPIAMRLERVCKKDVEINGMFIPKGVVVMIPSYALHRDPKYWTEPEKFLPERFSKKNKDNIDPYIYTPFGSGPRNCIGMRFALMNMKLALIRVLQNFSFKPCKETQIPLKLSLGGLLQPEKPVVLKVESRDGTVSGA
compound,measurement,setting,value
COc1ccc(/C=C2\SC(=N)NC2=O)cc1,AC50,[1],0.038 µM (active)
O=C(Nc1ccc(Cl)cc1)Nc1ccc2c(c1)N1CCN=C1S2,AC50,[1],1.07 µM (active)
O=C(N/N=C/c1cc([N+](=O)[O-])ccc1O)c1ccc(COc2ccc3c(c2)CCC3)o1,EC50,[2],28.3 µM (active)
same,EC50,[3],1.19 µM (active)
same,EC50,[4],> 180 µM (inactive)
same,EC50,[5],11.6 µM (active)
COc1cc(O)c2c(=O)c3c(O)c(O)ccc3oc2c1OC,AC50,[1],2.06 µM (active)
O=C(c1cnccn1)N1CCC2(CC1)CN(c1ccccn1)C2,AC50,Cytochrome P450 3A4,inconclusive
CCN(C(=O)c1cnc(N2CCN(c3ncccn3)CC2)c2ccccc12)c1cccc(Cl)c1,IC50,HEK293 [6],3.5 µM (active)
same,AC50,Cytochrome P450 1A2,15.8 µM (inconclusive)
same,EC50,[7],7.19 µM (active)
same,EC50,HEK293 [8],5.39 µM (active)
same,IC50,HEK293 [9],4.17 µM (active)
same,IC50,HEK293 [10],8.34 µM (active)
same,IC50,HEK293 [11],> 20 µM (inactive)
O=C1c2cccc3cccc(c23)C(=O)N1CCCn1ccnc1,AC50,[12],20.2 µM (active)
CC1(C)Cc2nc3sc4c(SCC(=O)O)ncnc4c3cc2CO1,AC50,HEK293 [13],4.58 µM (active)
same,AC50,[1],2.6 µM (active)
